In article PMC8969299 (Chemical Engineering Journal, 2022):

Assays:
[1] = Fluorescence lifetime of COVID19-PEB before/after annealing; type: physicochemical; conditions: before annealing; Oligo-Cy3 and Oligo-BHQ2 fixed at 10 nmol; Fig. 3c
SARS-CoV-2 [2] = assay: Fluorescence
influenza A virus = assay: Fluorescence response of COVID19-PEB to influenza A virus; set-up: species or system influenza A (pH1N1) virus (Human/Canada/2009); conditions: COVID 19-PEB 10 nmol in 100 µL; 25 °C; n = 3; Fig. 4d
influenza B virus = assay: Fluorescence response of COVID19-PEB to influenza B virus; set-up: species or system influenza B viruses (Victoria Brisbane/20/2009); conditions: COVID 19-PEB 10 nmol in 100 µL; 25 °C; n = 3; Fig. 4e
HCoV-OC43 = assay: Fluorescence response of COVID19-PEB to HCoV-OC43; set-up: species or system Human coronavirus OC43 (HCoV-OC43); conditions: COVID 19-PEB 10 nmol in 100 µL; 25 °C; n = 3; Fig. 4f
SARS-CoV-2 [3] = assay: Fluorescence detection of SARS-CoV-2 in biofluids; conditions: 10% nasal fluid and 10% saliva; n = 3; Fig. 5
SARS-CoV-2 [4] = assay: Detection of SARS-CoV-2 in clinical patient samples using COVID19-PEB
[5] = tested on: SARS-CoV-2 and its variants
SARS-CoV-2 S protein RBD = SARS-CoV-2 S protein RBD (Severe acute respiratory syndrome coronavirus 2, UniProt P0DTC2)

Substance: Cy3-TTTTGGGGG- I EEQA KTFL DKFN HEAE DLFY QSSL ASWK-CCCCCAAAA-BHQ2 [COVID19-PEB]
- fluorescence lifetime [1]: 2.23 ± 0.02 ns
- detection time, SARS-CoV-2 (SARS-CoV-2 [2]; COVID19-PEB): ≤ 3 h
- detection time, SARS-CoV-2 (shortest stated) (SARS-CoV-2 [2]; COVID19-PEB): ≤ 50 min
- time within which intensity change could be measured, SARS-CoV-2 (SARS-CoV-2 [2]; COVID 19-PEB 10 nmol, Fig. S4): ≤ 1 h
- detection limit, SARS-CoV-2 (SARS-CoV-2 [2]; COVID19-PEB fluorescence, 100 µL test): 4 × 10^3 plaque-forming unit/test
- change in fluorescence signal, influenza A virus (influenza A virus): no change in fluorescence signal was observed
- change in fluorescence signal, influenza B virus (influenza B virus): no change in fluorescence signal was observed
- change in fluorescence signal, HCoV-OC43 (HCoV-OC43): no change in fluorescence signal was observed
- detection of SARS-CoV-2 in biofluid (SARS-CoV-2 [3]): efficiently detected SARS-CoV-2 in the biofluid, with high sensitivity
- detection of virus in PCR-confirmed patient samples (SARS-CoV-2 [4]): accurately detected the virus
- discrimination among genetic mutations in SARS-CoV-2 [5]: does not effectively discriminate among the genetic mutations in SARS-CoV-2
- detection of SARS-CoV-2 and its variants ([5]; Fig. S5): useful for sensitive and rapid detection of SARS-CoV-2 and its variants
- fluorescence intensity with increasing concentration of S proteins (SARS-CoV-2 S protein RBD): gradually increased with the increasing concentration of the S proteins
- time within which intensity change could be measured, S protein RBD (SARS-CoV-2 S protein RBD): ≤ 1 h
